According to ChEMBL document CHEMBL4340512, “Discovery of novel triazolo[4,3-b]pyridazin-3-yl-quinoline derivatives as PIM inhibitors” (Eur J Med Chem, 2019):

Legend:
[1] = target: T1, Serine/threonine-protein kinase pim-1 (Homo sapiens, UniProt P11309); experiment: Inhibition of His tagged human recombinant PIM1 using PIM tide (ARKRRRHPSGPPTA) as substrate incubated for 1 hr by fluorescence based assay
[2] = target: T1, Serine/threonine-protein kinase pim-1; experiment: Inhibition of PIM1 in human NCI-H1299 cells assessed as reduction in BAD phosphorylation at Ser-112 residue incubated for 4 hrs by ELISA; type: cell-based
[3] = target: Serine/threonine-protein kinase pim-3 (Homo sapiens, UniProt Q86V86); experiment: Inhibition of N-terminal 6-His tagged human recombinant PIM3 using PIM tide (ARKRRRHPSGPPTA) as substrate incubated for 1 hr by fluorescence based assay
[4] = target: Serine/threonine-protein kinase pim-2 (Homo sapiens, UniProt Q9P1W9); experiment: Inhibition of His tagged human recombinant PIM2 using PIM tide (ARKRRRHPSGPPTA) as substrate incubated for 1 hr by fluorescence based assay
PC-3 = experiment: Antiproliferative activity against human PC3 cells incubated for 72 hrs by CellTiter-Glo luminescence assay; type: functional; details: PC-3, 72 h
[5] = target: T2, Receptor-type tyrosine-protein kinase FLT3 (Homo sapiens, UniProt P36888); experiment: Inhibition of human FLT3 using EAIYAAPFAKKK as substrate incubated for 60 mins by fluorescence based assay
T2 sequence (P36888 whole entry): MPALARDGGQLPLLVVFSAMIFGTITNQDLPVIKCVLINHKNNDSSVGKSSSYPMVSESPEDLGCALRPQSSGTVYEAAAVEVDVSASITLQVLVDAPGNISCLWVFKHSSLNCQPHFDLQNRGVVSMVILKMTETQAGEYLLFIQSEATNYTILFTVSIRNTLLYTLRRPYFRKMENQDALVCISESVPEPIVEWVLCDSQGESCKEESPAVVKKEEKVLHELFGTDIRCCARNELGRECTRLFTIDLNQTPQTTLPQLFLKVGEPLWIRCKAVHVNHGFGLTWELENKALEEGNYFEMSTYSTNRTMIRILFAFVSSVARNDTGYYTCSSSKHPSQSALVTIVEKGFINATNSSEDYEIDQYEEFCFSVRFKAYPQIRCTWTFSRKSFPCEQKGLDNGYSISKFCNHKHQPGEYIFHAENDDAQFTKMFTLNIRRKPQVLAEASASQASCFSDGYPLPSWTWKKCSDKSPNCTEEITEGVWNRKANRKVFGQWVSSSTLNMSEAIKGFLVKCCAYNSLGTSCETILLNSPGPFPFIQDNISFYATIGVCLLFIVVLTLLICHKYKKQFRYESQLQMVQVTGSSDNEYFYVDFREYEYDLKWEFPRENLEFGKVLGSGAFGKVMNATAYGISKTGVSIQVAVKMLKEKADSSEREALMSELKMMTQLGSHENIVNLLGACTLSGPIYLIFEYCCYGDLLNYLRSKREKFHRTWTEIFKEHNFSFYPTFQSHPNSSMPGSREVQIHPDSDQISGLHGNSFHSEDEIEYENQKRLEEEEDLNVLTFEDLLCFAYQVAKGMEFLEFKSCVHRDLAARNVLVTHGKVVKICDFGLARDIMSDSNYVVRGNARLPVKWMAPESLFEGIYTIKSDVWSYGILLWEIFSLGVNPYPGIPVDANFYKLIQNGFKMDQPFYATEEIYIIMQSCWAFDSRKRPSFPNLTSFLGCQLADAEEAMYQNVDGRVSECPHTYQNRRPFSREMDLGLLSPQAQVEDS

[6] = Clearance in iv dosed Balb/c mouse administered as single dose measured after 0.08 to 4 hrs by HPLC/MS analysis; type: ADME, organism-based; details: in vivo
[7] = Clearance in iv dosed Balb/c mouse administered as single dose measured after 0.08 to 4 hrs by HPLC/MS analysis relative to hepatic blood flow; type: ADME, organism-based; details: in vivo
[8] = target: Voltage-gated inwardly rectifying potassium channel KCNH2 (Homo sapiens, UniProt Q12809)
MDA-MB-231 = experiment: Antiproliferative activity against human MDA-MB-231 cells incubated for 72 hrs by CellTiter-Glo luminescence assay; type: functional; details: MDA-MB-231, 72 h
SK-MEL19 = experiment: Antiproliferative activity against human SK-MEL-19 cells incubated for 72 hrs by CellTiter-Glo luminescence assay; type: functional; details: SK-MEL19, 72 h
MV4-11 = experiment: Antiproliferative activity against human MV4-11 cells incubated for 72 hrs by CellTiter-Glo luminescence assay; type: functional; details: MV4-11, 72 h

SMILES | IC50 [1] [nM] | EC50 ([2]; read-out: EC50) [nM] | IC50 [3] [nM] | IC50 [4] [nM] | also measured
CN1CCOc2c1cnn1c(-c3cccc(NCC4CCNCC4)c3)nnc21 | > 10000 | – | – | – | –
CN1CCOc2c1cnn1c(-c3cccc(C(=O)NCC4CCNCC4)n3)nnc21 | 7100 | – | – | – | –
CC(C)N1CCOc2c1cnn1c(-c3ccc4cccc(NCC5CCNCC5)c4n3)nnc21 | 16 | 915 | 76 | 1650 | –
c1ccc(OCCN2CCOc3c2cnn2c(-c4ccc5cccc(NCC6CCNCC6)c5n4)nnc32)cc1 | 17 | 2020 | 140 | 4690 | –
CCN1CCOc2c1cnn1c(-c3ccc4cccc(NCC5CCNCC5)c4n3)nnc21 | 13 | 780 | 58 | 1930 | –
CN1CCOc2c1cnn1c(-c3cccc(C(=O)NCC4CCNCC4)c3)nnc21 | 870 | – | – | – | –
O=C(CCCCCCC(=O)Nc1ccccc1)NO [VORINOSTAT] | – | – | – | – | GI50 (PC-3): 5000 nM
CN1CCOc2c1cnn1c(-c3ccc4cccc(NCC5(F)CCNCC5)c4n3)nnc21 | 21 | 215 | 55 | 5530 | IC50 [5]: > 10000 nM
CN1CCOc2c1cnn1c(C(=O)Nc3ccccc3NC3CCNCC3)nnc21 | > 10000 | – | – | – | –
CN1CCOc2c1cnn1c(-c3ccc4ccnc(NCC5(F)CCNCC5)c4c3)nnc21 | 7 | 200 | 26 | 122 | IC50 [5]: > 10000 nM; clearance [6]: 23.2 mL/min/kg; CLH [7]: < 30%; IC50 [8]: > 20000 nM
CN1CCOc2c1cnn1c(-c3ccc4cccc(NC5CCOCC5)c4n3)nnc21 | 25 | 322 | 358 | 2470 | –
CN1CCC(Nc2cccc3ccc(-c4nnc5c6c(cnn45)N(C)CCO6)nc23)CC1 | 7 | 212 | 40 | 2870 | IC50 [5]: > 10000 nM; IC50 [8]: > 20000 nM
CN1CCOc2c1cnn1c(-c3ccc4cccc(NC(=O)C5CCNCC5)c4n3)nnc21 | 36 | 330 | 131 | 3740 | –
CN1CCOc2c1cnn1c(-c3ccc4cccc(NCC5CCOCC5)c4n3)nnc21 | 30 | 325 | 402 | 6210 | –
CN1CCOc2c1cnn1c(-c3ccc4cccc(N5CCC(N)CC5)c4n3)nnc21 | 38 | 5310 | 80 | 2140 | –
CN1CCOc2c1cnn1c(-c3ccc4cccc(NCC5CCNCC5)c4n3)nnc21 | 14 | 700 | 17 | 4260 | –
CN1CCOc2c1cnn1c(-c3ccc4cccc(NCC5CCOCC5)c4c3)nnc21 | 20 | – | 281 | 9940 | –
CN1CCOc2c1cnn1c(-c3ccc4ccnc(NC5CCCCC5)c4c3)nnc21 | 26 | 110 | 238 | 1100 | IC50 [5]: > 10000 nM
CN1CCOc2c1cnn1c(-c3ccc4cccc(NCC5CCCCC5)c4n3)nnc21 | 420 | – | > 10000 | > 1000 | –
CN1CCC(CNc2cccc3ccc(-c4nnc5c6c(cnn45)N(C)CCO6)nc23)CC1 | 14 | 179 | 82 | 4250 | IC50 [5]: > 10000 nM; IC50 [8]: > 20000 nM
CN1CCOc2c1cnn1c(-c3ccc4cccc(NC5CCCCC5)c4n3)nnc21 | 32 | 220 | 300 | 3330 | IC50 [5]: > 10000 nM; clearance [6]: 23.7 mL/min/kg; CLH [7]: < 30%; IC50 [8]: > 20000 nM

SMILES | IC50 [1] [nM] | EC50 ([2]; read-out: EC50) [nM] | IC50 [3] [nM] | IC50 [4] [nM] | also measured
CN1CCOc2c1cnn1c(-c3ccc4ccnc(NCC5CCNCC5)c4c3)nnc21 | 4 | 2510 | 6 | 27 | –
Cc1cc(NCC2(F)CCNCC2)c2nc(-c3nnc4c5c(cnn34)N(C)CCO5)ccc2c1 | 236 | 5960 | – | > 10000 | –
CN1CCOc2c1cnn1c(-c3ccc4cc(Cl)cc(NCC5(F)CCNCC5)c4n3)nnc21 | 30 | – | 1 | 1270 | EC50 ([2]; nci-h1299): Not Active
CN1CCOc2c1cnn1c(-c3cccc(-c4cccc(NCC5CCNCC5)c4)n3)nnc21 | 785 | – | – | – | –
CN1CCOc2c1cnn1c(-c3ccc4ccc(Cl)c(NCC5(F)CCNCC5)c4n3)nnc21 | 12 | 71 | 6 | 696 | IC50 [5]: > 10000 nM; IC50 [8]: 2100 nM
CN1CCOc2c1cnn1c(-c3ccc4c(F)c(F)cc(NCC5(F)CCNCC5)c4n3)nnc21 | 18 | 155 | 12 | 3590 | IC50 [5]: 6320 nM; clearance [6]: 3.83 mL/min/kg; CLH [7]: < 30%; IC50 [8]: > 20000 nM
CN1CCOc2c1cnn1c(-c3ccc4c(F)ccc(NCC5(F)CCNCC5)c4n3)nnc21 | 30 | 283 | 14 | 3010 | IC50 [5]: 3970 nM; clearance [6]: 9.33 mL/min/kg; CLH [7]: < 30%; IC50 [8]: > 20000 nM
CCCN1CCOc2c1cnn1c(-c3ccc4cccc(NCC5CCNCC5)c4n3)nnc21 | 12 | 800 | 60 | 4010 | –
CN1CCOc2c1cnn1c(-c3ccc4cccc(NC5CCCCC5)c4c3)nnc21 | 46 | 265 | 1550 | 8040 | IC50 [5]: > 10000 nM; IC50 [8]: 6060 nM
CC(C)C[C@H](NC(=O)[C@H](Cc1ccccc1)NC(=O)c1cnccn1)B(O)O [BORTEZOMIB] | – | – | – | – | GI50 (PC-3): 40 nM
CN1CCOc2c1cnn1c(-c3ccc4cccc(NCC5CCNCC5)c4c3)nnc21 | 6 | 865 | 58 | 4870 | –
CN1CCOc2c1cnn1c(-c3ccc4cc(F)cc(NCC5(F)CCNCC5)c4n3)nnc21 | 10 | 465 | 7 | 858 | –
CN1CCOc2c1cnn1c(-c3ccnc(NC4CCNCC4)c3)nnc21 | > 10000 | – | – | – | –
CN1CCOc2c1cnn1c(-c3ccc4cccc(N5CCNCC5)c4n3)nnc21 | 200 | 5360 | 257 | > 10000 | –
CN1CCOc2c1cnn1c(-c3cccc(-c4cccc(NC5CCNCC5)c4)n3)nnc21 | 425 | – | – | – | –
CN1CCOc2c1cnn1c(-c3ccc4cccc(NC5CCC(C)(C)CC5)c4n3)nnc21 | 92 | – | 4080 | > 10000 | EC50 ([2]; nci-h1299): Not Active
CN1CCOc2c1cnn1c(-c3ccc4cccc(NC5CCNCC5)c4n3)nnc21 | 12 | 1380 | 95 | 690 | –
O=C(NOC[C@H](O)CO)c1ccc(F)c(F)c1Nc1ccc(I)cc1F [MIRDAMETINIB] | – | – | – | – | GI50 (MDA-MB-231): 1000 nM
CC(=O)O[C@@]12CO[C@@H]1C[C@H](O)[C@@]1(C)C(=O)[C@H](O)C3=C(C)[C@@H](OC(=O)[C@H](O)[C@@H](NC(=O)OC(C)(C)C)c4ccccc4)C[C@@](O)([C@@H](OC(=O)c4ccccc4)[C@H]21)C3(C)C [DOCETAXEL ANHYDROUS] | – | – | – | – | GI50 (SK-MEL19): 2 nM; GI50 (MV4-11): 0.5 nM
CN1CCOc2c1cnn1c(C(=O)Nc3ccccc3NCC3CCNCC3)nnc21 | > 10000 | – | – | – | –
CN1CCOc2c1cnn1c(C(=O)Nc3ccccc3OCC3CCNCC3)nnc21 | 1100 | – | – | – | –
